These results are taken from patent US12280090B2, “Antimicrobial peptides” (priority 2018, dated 2025).

A word on the MIC: it is the lowest concentration that inhibits growth of the organism. Low readings indicate a more susceptible organism, high ones a less susceptible organism. The MBC is the smallest concentration meeting the test's criterion for killing. High values mean less potent killing, low ones more potent killing.

Format in all cases: cell-based
The test system of one assay is Salmonella Enteritidis. The source says:
(§1) Putative antimicrobial peptides were synthesized by GeneScript. A-list antimicrobial peptides re-synthesized by GeneScript. P2_CCH, P5_CCH, and P5_CCH_A19K were each synthesized under two conditions: standard synthesis using TFA, and the other with TFA-removal using acetate as a counter-ion. A MIC method, adapted for use with cationic antimicrobial peptides, was used to evaluate MIC antimicrobial activity (Hancock 1999).
(§2) The following data are presented to show the activity (MIC/MBC in μg/mL) of certain antimicrobial peptides described herein relative to a modified/synthetic version having a specified substitution. While data presented in tables above may be presented again, or may be represented in data provided in the tables below, such duplication is believed to assist the reader in readily noting comparisons. Different Run Numbers noted in the following tables denotes experiments conducted on different days, with each run reflecting multiple n values.

Assay [1] deals with Staphylococcus aureus—ATCC 29213 “wild type”. How it is done: Independent experiments were conducted with different strains of Staphylococcus aureus—ATCC 29213 “wild type”; and Staphylococcus aureus—Methicillin resistant Staphylococcus aureus.
(§3) The ATCC (American Type Culture Collection) strains received from Cedarlane. Multi drug resistant (MDR) strains, as clinical isolates, were received from the laboratory of Dr. Linda Hoang.
as §1, §2

For assay [2], the system named is Salmonella Heidelberg (MDR).
Excerpt: as §3, §1, §2

The subject of assay [3] is Escherichia coli—Carbapenemase-producing organism; Klebsiella pneumoniae carbapenemase. How it is done:
(§4) Independent experiments were conducted with four strains of E. coli, including ATCC E. coli (Escherichia coli—ATCC 25922 “wild type”); ESBL E. coli (Escherichia coli—Extended spectrum beta-lactamase); CPO E. coli (KPC) (Escherichia coli—Carbapenemase-producing organism; Klebsiella pneumoniae carbapenemase); and CPO E. coli (NDM) (Escherichia coli—Carbapenemase-producing organism; New-Dehli Metallobetalactamase).
as §3, §1, §2

Assay [4] relates to Escherichia coli—Extended spectrum beta-lactamase. How it is done:
as §4, §3, §1, §2

Assay [5] concerns Escherichia coli—ATCC 25922 “wild type”. Here is the method: as §4, §3, §1, §2
For assay [6], the system named is Escherichia coli—Carbapenemase-producing organism; New-Dehli Metallobetalactamase. How it is done:
as §4, §3, §1, §2

The test system of assay [7] is Streptococcus pyogenes: unknown strain, hospital isolate. As to conditions: unknown strain, hospital isolate. In outline: (§5)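 MIC and MBC were run by broth microdilution adapted from Hancock cationic-AMP and CLSI methods, in Mueller Hinton broth (+5% lysed horse blood for S. pyogenes) at about 5×10^5 CFU/mL. Peptides came from two-fold 10× stocks (2560–5 μg/mL) and were incubated 16-24 h at 37 °C. For MBC, the MIC well and two more-concentrated wells were plated on MHA for 24 h at 37 °C.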

Assay [8] deals with Staphylococcus aureus: ATCC 6538P. The conditions noted are these: ATCC 6538. In outline: as §5
In assay [9] the test system is Mycobacterium smegmatis (MC^2155). The conditions noted are these: Mycobacterium (MC^2155). In short, it runs like this:
as §5

In assay [10] the test system is Pseudomonas aeruginosa: ATCC 10148. The conditions noted are these: ATCC 10148. In short, it runs like this:
as §5

In brackets after ≈: the same amount, converted by molar mass. Read-outs that look alike come from different tables or passages of the source. Ends that are not written are not given here. Peptide text beside a SMILES is read from it.

Regarding `CC[C@H](C)[C@H](NC(=O)[C@H](CCCCN)NC(=O)[C@H](CCC(=O)O)NC(=O)[C@H](CCCCN)NC(=O)[C@H](CO)NC(=O)[C@H](CCCCN)NC(=O)[C@H](CCCNC(=N)N)NC(=O)[C@H](Cc1ccccc1)NC(=O)[C@H](Cc1ccccc1)NC(=O)[C@H](CC(=O)O)NC(=O)CNC(=O)[C@H](CC(C)C)NC(=O)[C@@H](N)CC(C)C)C(=O)NCC(=O)N[C@@H](CCCCN)C(=O)N[C@@H](CCC(=O)O)C(=O)N[C@@H](Cc1ccccc1)C(=O)N[C@@H](CCCCN)C(=O)N[C@@H](CCCNC(=N)N)C(=O)N[C@H](C(=O)N[C@H](C(=O)N[C@@H](CCC(N)=O)C(=O)N[C@@H](CCCNC(=N)N)C(=O)N[C@H](C(=O)N[C@@H](CCCCN)C(=O)N[C@@H](CC(=O)O)C(=O)N[C@@H](Cc1ccccc1)C(=O)N[C@@H](CC(C)C)C(=O)N[C@@H](CCCNC(=N)N)C(=O)N[C@@H](CC(N)=O)C(=O)N[C@@H](CC(C)C)C(=O)N[C@H](C(=O)N1CCC[C@H]1C(=O)N[C@@H](CCCNC(=N)N)C(=O)N[C@H](C(=O)N[C@@H](CCC(=O)O)C(=O)N[C@@H](CO)C(=O)O)[C@@H](C)O)C(C)C)[C@@H](C)CC)C(C)C)[C@@H](C)CC` [LL-37, reference compound], the “Minimum Inhibitory Concentration (MIC)” value is recorded as 64+ ug/mL in the assay on Salmonella Enteritidis (S. enterica spp. Enteritidis, Gram negative) and 128+ ug/mL in assay [1] (S. aureus ATCC 29213, Gram positive).

For the compound `CC[C@H](C)[C@H](NC(=O)[C@H](CCCCN)NC(=O)[C@@H](NC(=O)[C@H](C)NC(=O)[C@H](Cc1ccccc1)NC(=O)[C@H](CC(=O)O)NC(=O)[C@H](CCCCN)NC(=O)CNC(=O)[C@@H](NC(=O)[C@@H](NC(=O)[C@H](CCCCN)NC(=O)[C@@H](NC(=O)[C@@H](NC(=O)[C@H](CC(=O)O)NC(=O)[C@H](CC(C)C)NC(=O)[C@H](CC(C)C)NC(=O)CN)[C@@H](C)CC)[C@@H](C)CC)[C@@H](C)O)[C@@H](C)O)C(C)C)C(=O)N[C@@H](CC(C)C)C(=O)N[C@@H](CC(=O)O)C(=O)N[C@@H](CC(N)=O)C(=O)N[C@@H](CC(C)C)C(=O)N[C@@H](CCCCN)C(=O)N[C@@H](CS)C(=O)N[C@@H](CCCCN)C(=O)N[C@@H](CC(C)C)C(=O)N[C@@H](C)C(=O)NCC(=O)NCC(=O)N[C@@H](CS)C(=O)N1CCC[C@H]1C(=O)N[C@@H](CCCCN)C(=O)O` [Peptide P4_CCH_P31K] (H-GLLDIIKTTGKDFAVKILDNLKCKLAGGCPK-OH; N-terminus and C-terminus assumed), the results for the MIC (in [2]; in assay [4]; in the assay with Salmonella Enteritidis) were 128 µg/mL (≈ 39.1 µM), 32 µg/mL (≈ 9.77 µM) and 256 µg/mL (≈ 78.2 µM), respectively. The “Minimum Inhibitory Concentration (MIC)” value in assay [2] (S. enterica spp. Heidelberg, Gram negative) was 128+ ug/mL; in assay [3], 16 to 32 µg/mL; in assay [4], 32 µg/mL; in assay [5], 16 to 32 µg/mL; in assay [6] it was 32 to 64 µg/mL. In addition, the figures for the MBC (in assay [4]; in the assay on Salmonella Enteritidis) were 32 µg/mL (≈ 9.77 µM) and 256 µg/mL (≈ 78.2 µM), respectively.

In the case of “ATAWMIPPRGMQPIIPIRIRPLCGKQ [P7_CCH_P9R_R5M]”, the MBC in assay [3] is 256 µg/mL; in assay [4], 128 µg/mL. Moreover, the MIC in assay [3] is 256 µg/mL; in assay [4] it was 128 µg/mL; in assay [5] it was 256 µg/mL; in assay [6] it was 256 µg/mL; in [1] (ATCC 29213), 128 µg/mL.

“FFPRVLPLANKFLPTIYCALPKSVGN [Peptide P2_CCH]”: the MBC in [2] is 128 µg/mL; in [7] it was above 256 µg/mL; in assay [8] it was above 256 µg/mL; in [10], above 256 µg/mL; in the assay with Salmonella Enteritidis, 64 µg/mL. Besides, the MIC in assay [2] was 128 µg/mL; in assay [7] it was above 256 µg/mL; in assay [8] it was above 256 µg/mL; in [9], 16 µg/mL; in [10], above 256 µg/mL; in the assay on Salmonella Enteritidis, 64 µg/mL. In addition, the “Minimum Inhibitory Concentration (MIC)” value in assay [2] is 128 µg/mL; in assay [3] it was 16 to 32 µg/mL; in assay [4] it was 16 µg/mL; in assay [5] it was 16 µg/mL; in assay [6], 16 µg/mL; in the assay with Salmonella Enteritidis it was 64 µg/mL.
